# Experimental data taken from article PMC7754465, “Multiparameter Kinetic Analysis for Covalent Fragment Optimization by Using Quantitative Irreversible Tethering (qIT)” (Chembiochem, 2020).
# Experiments:
# [1] = biological target: T1, Cdk2(ES) = Cdk2(F80C,C177A) (Homo sapiens, UniProt P24941, C177A/F80C); assay: quantitative irreversible tethering (qIT): rate of cysteine modification of Cdk2(ES); assay type: binding; conditions: for kinact/KI at 500 µM: Cdk2(ES) 5 μM, read-out: Cdk2(ES): kobs/[I]; for covalent SAR by REF-based qIT analysis: compared with acrylamide 1 or parent analogue
# T1 construct: GST (N, cleaved yes); made in house; host or cells: E. coli Tuner(DE3)
# Method: (§1) Figure 2 Comparison of previous and current applications of Quantitative irreversible tethering (qIT). a) Overview of rate determination. A cysteine‐containing biomolecule is treated with covalent fragments under pseudo‐first‐order conditions. Reaction progress is followed by discrete measurement of free cysteine concentration by using the fluorogenic probe CPM, and rate constants (k obs) are derived from exponential regression analysis. b) Comparison of the reactivity profile of each fragment with the POI and GSH typically classes them as unreactive, reactive but non‐selective or reactive and selective. c) Quantification of kinetic POI/GSH selectivity facilitates hit identification. d) The observed rate of reaction between the POI and hit fragment is determined at a range of ligand concentrations by using qIT. Subsequent hyperbolic regression analysis is used to derive K i and k inact to facilitate comprehensive covSAR analysis.
# Therefore, we set out to develop novel classes of electrophile sensitive kinase inhibitors using a covalent fragment approach. Accordingly, we screened a 138‐member library of diverse cysteine‐reactive fragments at 500 μM against Cdk2(ES) and GSH by using the qIT platform and monitored the kinetics of cysteine‐modification over 24 hours. […] Using three standard deviations over the geometric mean REF as the statistical cut‐off for defining hit fragments (REF >27.9) yielded two acrylamide fragments, tetrahydroquinoline 1 (REF=81) and pyrimidine S1 (REF=64) for further investigation (Figures 3c and S2). […]
# D. Rate determination by qIT
# Reaction-plate setup: Each well of a 96-well PCR plate was charged with 60–100 µL of target thiol (GSH or protein, 10 µM) and 4% w/v TCEP-agarose beads in 100 mM phosphate buffer (pH 7.5 or 8) and cooled to 4 °C. Reactions were started by addition of an equal volume of pre-cooled electrophile solution (1 mM, 2% DMSO) in 0.1 M phosphate buffer (final concentra-tion: thiol = 5 µM, electrophile = 0.5 mM, 2% w/v TCEP-agarose beads), with a minimum of 4 wells per plate used as DMSO/thiol only controls. After mixing, TCEP-agarose was pelleted by centrifugation (1,300 rpm, 1 min) and the plate incu-bated at 4 °C. CPM Quench: At a series of time points (typically around 0.25, 0.5, 1, 2, 6, 24, 48, 72 and 120 hours after reac-tion initiation), 3 µL aliquots of each reaction were quenched into a 384-well fluorescence plate (Corning – black, NBS) where each well was charged with 27 µL of CPM solution (1.39 µM) in 100 mM phosphate buffer (pH 7.5) (final concentration: thiol = 0.5 µM, CPM = 1.25 µM). Quenching was typically performed in duplicate and fluorescence plates were incubated at room temperature for 60 minutes before fluorescence intensity (excitation/emission: 384/470 nm) was measured on an EnVisionTM plate reader. Analysis: All analysis was performed using Prism 8.0 software (GraphPad). For each time point, the fluorescence of each reaction was normalized relative Cdk2(ES)/GSH only control = maximum signal, DMSO only = minimum signal. The normalized fluorescence for each reaction was plotted against time. A one phase exponential decay was fitted to each plot (Constraints: Y(0) > 0.8; 0 < plateau = 0), yielding a pseudo first-order rate constant.
# Cdk2 mutations were introduced by PCR and cloned into pGEX6P1 Cdk2 (552), a gift from Jonathon Pines (Addgene plasmid # 61845) used to express GST-Cdk2(WT). GST-Cdk2(ES) = GST-Cdk2(F80C,C177A). All constructs were verified by se-quencing. pGEX6P1 cyclin A2 (amino acids 173-432) was generated by PCR and restriction digestion. GST-CAK1 was con-structed by PCR amplification of S.cerevisiae genomic DNA and the product cloned into pKEG-KG. All protein expression was performed using an adapted autoinduction protocol:[8] Plasmids were transformed into E. coli Tuner(DE3) and cultures grown in autoinduction media at 37 °C until OD600 = 0.9. The cultures were then incubated at 18 °C for a further 40 hours before […]
# [2] = qIT: rate of reaction with glutathione (intrinsic reactivity); assay type: physicochemical; conditions: fragment 0.5 mM, glutathione 5 μM
# Method: Previously we described a fluorescence‐based platform for screening cysteine‐targeting covalent fragments called quantitative irreversible tethering (qIT). ^[19] The method measures and compares the rate of reactions of individual fragments with the protein‐of‐interest (POI) and GSH (Figure 2a and b).
# as §1, with “covSAR analysis. […]” for “covSAR analysis.”
# Cdk2(ES) = biological target: T2, Cdk2(ES) (Homo sapiens, UniProt P24941, C177A/F80C); assay: concentration-dependent qIT with hyperbolic regression (Ki, kinact); assay type: binding; conditions: for kinact/KI / Ki / kinact: acrylamide 25-500 μM, Cdk2(ES) 5 μM; for Ki / kinact: hyperbolic fit of kobs
# T2 construct: GST (N, cleaved yes); made in house; host or cells: E. coli Tuner(DE3)
# Method: Next we sought to carry out comprehensive kinetic analysis of the covalent binding to better understand the covSAR trends. Accordingly, the concentration dependency for the rate of reaction between Cdk2(ES) and key acrylamides 1, 6, 9 and 11 were determined using qIT (Figure 7c). To maintain pseudo‐first‐order reaction kinetics and stay within the solubility limits of the fragments, ligands were titrated from 25 to 500 μM. […] Indeed, comparing the binding conformations of the merged (9 and 11) and parent (1 and 6) fragments, we observe a subtle shift in the position of the core scaffolds and the orientation of the acrylamide link that likely explains the jump in potency that resulted from fragment merging. Overall, comparing acrylamides 9 and 11, we observe in a 3.7‐fold increase in k inact/K i and a 4.3‐fold increase in REF, and the consistency between these two orthogonal metrics of covalent fragment potency is encouraging for future applications of qIT to covalent fragment optimization.
# H. Intact-protein mass spectrometry
# Protein-mass data were obtained on a Waters micromass LC-TOF mass spectrometer in positive ion mode using electrospray ionization. Samples were chromatographed using an Acquity UPLC protein BEH C4 column (2.1 mm × 50 mm, 2.7 µm) with a flow rate of 30 µL/min. The injection volume was 5 µL of protein solution (5 µM) in 30 mM ammonium bicarbonate buffer con-taining 0.5% formic acid and 20% MeOH. The gradient used was 100% mobile phase A (0.1% formic acid in water/MeOH (19:1)) ramping linearly to 90% mobile phase B (0.1% formic acid in MeOH) over 5 minutes. The spectra were acquired from 500 to 2500 Da and deconvolution was performed with MassLynx (Waters), using the maximum entropy algorithm, over a mass range of […] with a mass step of 0.75. […]
# Cdk2(WT) or Cdk2(ES) (1 mg) was sequentially incubated with aliquots of CAK1 (3 × 0.05 mg) at r.t. for 4 hours at a time in 1.5 mL of a 30 mM Tris/HCl buffer (pH 7.5) containing 10 mM MgCl2, 10 mM ATP and 3 mM DTT. As CAK1 appeared to be-come rapidly inactivated in the presence of pCdk2, three repetitions were required to drive the reaction to completion. The resulting solution was incubated with 50 µL of glutathione-Sepharose beads and filtered to remove remaining CAK1.
# Kinase assays were performed by coupling the conversion of ATP into ADP to the oxidation of NADH (Abs = 340 nm) into NAD+, mediated by lactate dehydrogenase (LDH) and pyruvate kinase (PK). WT, mutant or ligand-conjugated pCdk2 (12.5 or 50 nM) was preincubated with Cyclin A2 (20 nM) in a buffer containing 50 mM Tris/HCl, 10 mM MgCl2, 5 mM DTT, 1 mM phosphoenolpyruvate, 0.24 mM NADH, 10 U mL-1 LDH, 14 U mL-1 PK and 5% DMSO at 37 °C for 30 minutes. Reactions were initiated by addition of 0.5 mM ATP and 0.24 mM substrate peptide (PKTPKKAKKL) and the absorbance at 340 nm was moni-tored for two hours. Assays were conducted at 37 °C and carried out in clear 384-well plates (Nunc) using a SpectraMax i3x plate reader (Molecular Devices) with a final volume of 20 µL in each well. After plotting Abs 340 against time, enzyme velocity was measured from the gradient during the linear phase of product accumulation.
# Q. Concentration dependent qIT
# The rate of reaction (kobs) for the reaction between each acrylamide (25, 50, 125, 250 and 500 µM) with Cdk2(ES) (5 µM) was determined us qIT (see D. Rate Determination by qIT) in duplicate. The average kobs was plotted against acrylamide concen-tration and hyperbolic regression analysis performed using Prism 8.0 software (GraphPad) to derive kinact and Ki.
# [3] = acrylamide 11 compared with acrylamide 9
Compound,kinact/KI at 500 µM ([1]; fragment 0.5 mM) [M⁻¹ s⁻¹],covalent SAR by REF-based qIT analysis [1],further results
C=CC(=O)N1CCCc2cc(C(=O)O)ccc21 [compound 3],,complete loss of activity,
C=CC(=O)N1CCCc2cc(C(N)=O)ccc21 [compound 4],,complete loss of activity,
C#CCNC(=O)c1ccc2c(c1)CCCN2C(=O)C=C [compound 5],,well tolerated,
C=CC(=O)N1CCN(C(C)=O)c2ccccc21 [compound 7],,loss of activity,
C=CC(=O)N1CCN(CC2CC2)c2cc(C(=O)OC)ccc21 [compound 11],19.5,significant improvement in REF,"fold increase in REF [1, 3]: 4.3 fold; fold increase in kinact/Ki (Cdk2(ES); [3]): 3.7 fold; kinact/KI (Cdk2(ES)): 17.7 M⁻¹ s⁻¹; Ki (Cdk2(ES)): 102 µM; kinact (Cdk2(ES)): 0.00181 s⁻¹"

# More lines, main results first:
kinact/KI at 500 µM ([1]; fragment 0.5 mM) [M⁻¹ s⁻¹],covalent SAR by REF-based qIT analysis [1],Compound,further results
0.68,,C=CC(=O)N1CCn2c1nc1ccccc12 [compound 2],GSH: kobs/[I] [2]: 5.34 M⁻¹ s⁻¹
,tenfold loss in REF,C=CC(=O)N1CCc2cc(C(=O)OC)ccc21 [compound 8],
8.48,,C=CC(=O)N1CCN(CC)c2cc(C(=O)OC)ccc21 [compound 9],"rate of reaction with Cdk2(ES) relative to acrylamide 1 ([1]; qIT): six times faster than acrylamide 1; rate enhancement factor (REF) ([1]; rate with Cdk2(ES) relative to rate with GSH, fragment 0.5 mM, thiol 5 μM): 182; kinact/KI (Cdk2(ES)): 4.76 M⁻¹ s⁻¹; Ki (Cdk2(ES)): 416 µM; kinact (Cdk2(ES)): 0.00198 s⁻¹"
1.91,less Cdk2(ES) selective,C=CC(=O)N1CCN(C)c2cc(C(=O)OC)ccc21 [compound 10],
